Reference: PubChem BioAssay AID1068 (Emory University Molecular Libraries Screening Center, 2008)
The source made the active and inactive calls.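 The calls were made as follows: active = IC50 of 15 µM or lower, and residual activity at the IC50 concentration no higher than 60%; inactive = the rest.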

Target: Ubiquitin carboxyl-terminal hydrolase BAP1 (Homo sapiens) (UniProt Q92560)
Experiment: BAP1 deubiquitinase inhibition, substrate comparison – biochemical, Ub-AMC versus Ub-rhodamine substrates, dose response (AID 1068)
Conditions: recombinant BAP1, Ub-rhodamine hydrolysis fluorescence
[1] = measured here: Ub-AMC substrate assay

Chain of Ubiquitin carboxyl-terminal hydrolase BAP1 (Homo sapiens) (Q92560 whole entry, looked up): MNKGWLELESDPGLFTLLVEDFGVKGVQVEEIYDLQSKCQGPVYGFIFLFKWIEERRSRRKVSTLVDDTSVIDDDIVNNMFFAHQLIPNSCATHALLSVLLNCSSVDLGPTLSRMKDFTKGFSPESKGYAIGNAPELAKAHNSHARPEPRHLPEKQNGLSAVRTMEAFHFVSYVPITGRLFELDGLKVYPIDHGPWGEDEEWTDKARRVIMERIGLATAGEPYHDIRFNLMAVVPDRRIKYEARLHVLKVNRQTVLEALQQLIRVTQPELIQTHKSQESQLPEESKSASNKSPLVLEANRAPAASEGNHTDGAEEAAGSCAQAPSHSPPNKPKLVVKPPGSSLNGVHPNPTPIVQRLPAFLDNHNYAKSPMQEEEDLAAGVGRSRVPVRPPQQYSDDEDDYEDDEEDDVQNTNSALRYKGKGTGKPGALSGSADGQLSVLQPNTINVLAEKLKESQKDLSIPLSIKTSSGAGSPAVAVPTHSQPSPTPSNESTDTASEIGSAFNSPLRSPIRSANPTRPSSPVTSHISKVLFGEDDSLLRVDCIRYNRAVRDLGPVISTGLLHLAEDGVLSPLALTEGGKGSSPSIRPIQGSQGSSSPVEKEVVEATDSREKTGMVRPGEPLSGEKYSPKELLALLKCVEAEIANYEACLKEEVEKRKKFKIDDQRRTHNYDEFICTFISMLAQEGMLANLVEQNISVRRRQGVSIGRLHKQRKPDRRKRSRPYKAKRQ

| SMILES | IC50 | IC50 [1] [µM] | outcome |
| --- | --- | --- | --- |
| Cc1oc(NC(=O)CSc2n[nH]c(-c3ccc(F)cc3)n2)c(C#N)c1C | > 100 µM (inactive) | 46.5 |  |
| Cc1sc(NC(=O)CSc2nc3ncnc(N)c3[nH]2)c(C#N)c1C |  | > 100 | inactive |
| Cc1cccc2cc(C(c3nnnn3C(C)(C)C)N3CCN(C(=O)c4ccco4)CC3)c(=O)[nH]c12 (stereo not drawn) | < 0.78 µM (inactive) | 55.7 |  |
| Cc1ccc(-c2c(C)sc(NC(=O)CSc3nnc(-c4ccccc4)o3)c2C#N)cc1C | inactive | 69.8 |  |
| O=C(NCc1ccco1)c1cc2nc(-c3ccc4c(c3)OCO4)cc(C(F)(F)F)n2n1 | inactive | > 100 |  |
| O=C(O)c1ccccc1-c1nc(-c2cccc(Cl)c2)no1 | > 100 µM (inactive) | 58.8 |  |
| CCCc1cc(=O)[nH]c(SCC(=O)Nc2ccc(C(=O)OC)cc2)n1 |  | > 100 | inactive |
| CCc1cc(=O)[nH]c(SCC(=O)Nc2ccc(C(=O)OC)cc2)n1 |  | > 100 | inactive |
| N#Cc1c(NC(=O)CSc2nnc(-c3ccc(Cl)cc3)o2)sc2c1CCCC2 | inactive | > 100 |  |
| O=C(NCc1ccccn1)c1cc2nc(-c3ccc4c(c3)OCO4)cc(C(F)(F)F)n2n1 |  | > 100 | inactive |
| Cc1cccc2cc(C(C#N)N3CCN(C(=O)OC(C)(C)C)CC3)c(=O)[nH]c12 (stereo not drawn) | inactive | > 100 |  |
| Cc1sc(NC(=O)CSc2nnc(-c3ccc(F)cc3)o2)c(C#N)c1C | inactive | 99.7 |  |
| Cc1sc(NC(=O)CSc2nnc(-c3ccccc3)o2)c(C#N)c1C | inactive | 47.8 |  |
| Cc1cccc2cc(C(c3nnnn3C(C)(C)C)N3CCNCC3)c(=O)[nH]c12 (stereo not drawn) | inactive | > 100 |  |
| Cc1sc(NC(=O)CSc2nnc(-c3ccc(Cl)cc3)o2)c(C#N)c1-c1ccc(F)cc1 | 5.51 µM | > 100 |  |
| Cc1cccc2cc(C(c3nnnn3C(C)(C)C)N3CCN(C(=O)OC(C)(C)C)CC3)c(=O)[nH]c12 (stereo not drawn) | > 100 µM (inactive) | > 100 |  |
| COC(=O)c1ccc(NC(=O)CSc2nc(C)cc(=O)[nH]2)cc1 |  | > 100 | inactive |

These reach a lower IC50 [1]. Values come first.

| IC50 | IC50 [1] [µM] | outcome | SMILES |
| --- | --- | --- | --- |
| inactive | 39.9 |  | COc1cccc(NC(=O)c2ccccc2-c2nc(-c3ccc(Cl)cc3)no2)c1 |
| > 100 µM (inactive) | 38.9 |  | Cc1cccc2cc(C(c3nn[nH]n3)N3CCN(C(=O)OC(C)(C)C)CC3)c(=O)[nH]c12 (stereo not drawn) |
| inactive | 41.7 |  | N#Cc1c(NC(=O)CSc2nnc(-c3ccc(F)cc3)o2)sc2c1CCCC2 |
| inactive | 37.5 |  | COc1cccc(NC(=O)c2ccccc2-c2nc(-c3cccc(Cl)c3)no2)c1 |
| inactive | 1.31 |  | O=C(O)c1ccccc1-c1nc(-c2ccc(Cl)cc2)no1 |
| inactive | 44.7 |  | O=C(NCc1cccs1)c1cc2nc(-c3ccc4c(c3)OCO4)cc(C(F)(F)F)n2n1 |
| 12.5 µM | 32.1 |  | Cc1sc(NC(=O)CSc2nnc(-c3ccccc3)o2)c(C#N)c1-c1ccc(F)cc1 |
| inactive | 1.55 |  | Cc1cccc2cc(C(C#N)N3CCNCC3)c(=O)[nH]c12 (stereo not drawn) |
| inactive | 39.6 |  | COc1cc(-c2nnc(SCC(=O)Nc3sc(C)c(-c4ccc(F)cc4)c3C#N)o2)cc(OC)c1OC |
| 9.54 µM | 37.4 |  | Cc1sc(NC(=O)CSc2nnc(-c3ccc(Cl)cc3)o2)c(C#N)c1C |
|  | 2.32 | inactive | COc1cc(-c2nnc(SCC(=O)Nc3sc(C)c(C)c3C#N)o2)cc(OC)c1OC |
|  | 5.62 | inactive | CCc1ccc(NC(=O)CSc2nc(C)cc(=O)[nH]2)cc1 |
| 9.11 µM | 15.3 |  | Cc1sc(NC(=O)CSc2n[nH]c(-c3ccc(O)cc3)n2)c(C#N)c1-c1ccc(F)cc1 |
| inactive | 40.1 |  | COc1ccccc1NC(=O)c1ccccc1-c1nc(-c2ccc(Cl)cc2)no1 |
| inactive | 27.1 |  | O=C(Nc1cccc(O)c1)c1ccccc1-c1nc(-c2cccc(Cl)c2)no1 |
| 13.5 µM | 32.6 |  | Cc1ccc(-c2c(C)sc(NC(=O)CSc3nnc(-c4ccc(Cl)cc4)o3)c2C#N)cc1C |
| 10 µM | 37 |  | Cc1ccc(-c2c(C)sc(NC(=O)CSc3nnc(-c4ccc(F)cc4)o3)c2C#N)cc1C |
